Experimental data published in article PMC8991960, “A Bivalent Activatable Fluorescent Probe for Screening and Intravital Imaging of Chemotherapy‐Induced Cancer Cell Death” (Angewandte Chemie (International Ed. in English), 2021).

Tests used:
[1] = tested on: 8 cancer cell lines; assay: Classification of drugs by Apotracker Red (apoptosis) and CellTrace Violet (proliferation) staining; assay type: cell-based; conditions: 8 cell lines, 24 h treatment, single-dose screen
Experimental: To corroborate the versatility of Apotracker Red, we built a screening platform including a total of 8 cancer cell lines of variable origin and pathogenesis: breast (MCF7, MDA‐MB231 and MMTV‐PyMT (mouse mammary tumour virus‐polyoma middle tumour‐antigen)[23]), lung (A549), prostate (PC3 and LnCap), blood cells (Jurkat) and colon (HT29). All cell lines were cultured under standard conditions and seeded with the fluorescent proliferation marker CellTrace^TM Violet (CV) in 96‐well plates (10–20×10^3 cells/well) for high‐throughput flow cytometry. After drug treatment (i.e., drug addition plus 24 h incubation), Apotracker Red was incubated for 10 min and fluorescence readings were directly acquired without any additional processing steps (Figure 3 a). […] Using this platform, we tested a collection of FDA‐approved drugs in all cancer cell lines and compared their ability to induce apoptosis using Apotracker Red as the reporter. Specifically, we included DNA alkylation agents (e.g., cyclophosphamide, cisplatin, 5‐fluorouracil, gemcitabine, temozolomide), proteasomal and mitotic inhibitors (e.g., bortezomib, docetaxel, paclitaxel) and antagonists of specific proteins (e.g., dexamethasone, tamoxifen; Figure 3 b).
(§1) First, all drugs were tested in the 8 different cell lines to determine the percentages of Apotracker Red‐stained apoptotic cells compared to no treatment (Figure 3 c; Figure S8). […] All 5 drugs were tested at multiple concentrations (from 1 to 100 μM) and with incubation times up to 48 h to examine whether drugs could block cell proliferation at late stages (Figures S9–S13).
Figure S8. Heatmap of relative inhibition of cell proliferation (as indicated by staining of CellTraceTM Violet) after treatment of cancer cell lines with different drugs. Data presented as an average of 3 independent experiments. Cells were stained on day 0 with CellTraceTM Violet (1 µM) and mean fluorescence intensities were determined on the 5L LSR after 24 h of treatment with the different drugs.
(1 picture or pasted object on this page, not shown here) […]
Cell culture. MCF-7, A549, LnCap, MDA-MB-231, Jurkat T cells and PC3 cells were obtained from American Type Culture Collection (ATCC). HT29 cells were purchased from Merck (S i g m a Aldrich, UK). Mouse Mammary Tumour Virus –Polyoma Middle T antigen (MMTV -PyMT) cells were provided by the lab of Mikala Egeblad (CSHL, US). MMTV-PyMT, MCF-7, LnCap, MDA-MB-231 and Jurkat T cells were cultured in Roswell Park Memorial Institute (RPMI) 1640 Medium supplemented with 10% fetal bovine serum (FBS) , 100 U mL-1 penicillin and 0.1 mg mL-1 streptomycin. A549 and PC3 cells were cultured in Dublecco’s modified Eagle’s medium (DMEM) supplemented with 10% fetal bovine serum (FBS), 100 U mL-1 penicillin and 0.1 mg […]
Flow cytometry drug screen.

[2] = tested on: breast cancer cells (MMTV-PyMT, MDA-MB231, MCF7); assay: Dose-dependency study with Apotracker Red and CellTrace Violet; assay type: cell-based, mouse and human; conditions: 1 to 100 µM
Experimental: as §1, with “S8). […] From this screen, we decided to select 5 drugs with potent pro‐apoptotic response in breast cancer, the most diagnosed cancer worldwide.[25] […] From group 2, we selected cyclophosphamide, tamoxifen, and 5‐fluorouracil as pro‐apoptotic molecules.” for “S8).”
Figure 4 Apotracker Red detects dose‐dependent chemotherapeutic‐induced apoptosis in mouse and human breast cancer cell lines. Cells were plated with 1 μM CV, treated with increasing concentrations (0, 1, 3, 10, 30 and 100 μM) of selected drugs for 48 h, and stained with Apotracker Red (150 nM) before data acquisition. Drugs: tamoxifen (beige), cisplatin (black), 5‐fluorouracil (green), gemcitabine (pink) and cyclophosphamide (red). Data presented as mean±SEM of 3 independent experiments.
Figure S9. Flow cytometry analysis of cisplatin in different breast cancer cell lines.
Representative flow cytometric plots (from three independent experiments) of MMTV-PyMT cells (a), MDA-MB231 cells (b) and MCF7 cells (c) after treatment with increasing concentrations of cisplatin for 48 h. Cells were stained on day 0 with CellTraceTM Violet (1 µ M) and with Apotracker Red (150 nM) before data acquisition.
(1 picture or pasted object on this page, not shown here)
Edinburgh. Human peripheral blood neutrophils were isolated as previously described.[3] […]
were centrifuged (300 g, 5 min, r.t.), washed once with PBS before addition of 0.05% Trypsin, 0.02% ethylenediaminetetraacetic acid (EDTA) in Hank’s balanced salt solution (HBSS) and incubation at 37°C for 5 min. […] Histograms and mean fluorescence intensities of […]

SMILES: N.N.[Cl][Pt][Cl] [cisplatin]
- Drug group by Apotracker Red (apoptosis) and CV (proliferation) staining [1]: induced apoptosis and decreased cell proliferation
- Percentages of Apotracker Red staining, dose-dependency study ([2]; 48 h, Apotracker Red 150 nM, 3 independent experiments): highest percentages of Apotracker Red staining across all breast cancer cells
- Ratios of proliferation blockage, dose-dependency study ([2]; up to 48 h, CellTrace Violet 1 µM): highest ratios of proliferation blockage
